Test results from patent publication US20040009904A1, “APL immunoreactive peptides, conjugates thereof and methods of treatment for aPL antibody-mediated pathologies” (priority 1995, published 2004).
Numbered stars: 1 amine (or outer) side, 2 acyl side, 3 side chain; on linkers, the order of the positions; unused ones are H or OH. Bridge positions count the residues as written; N and C are the ends. Square brackets hold non-standard residues; d marks the D form. Peptide text beside a SMILES is read from it. Abu(4-yl) = O=C([C@H](CC[*:3])N[*:1])[*:2]; NMeL = CN[C@@H](CC(C)C)C(=O)O; Phg = N[C@H](C(=O)O)c1ccccc1; hCys = N[C@@H](CCS)C(=O)O; Aib = CC(C)(N)C(=O)O

Columns and labels:
[1] = system: ACA; experiment: Structure Activity Relationship of the Crossreactive ACA Epitope (relative activity); type: binding, human; details: LJP 688 = 100
Excerpt: Peptide 6641/3G3 (LJP 688) was subjected to a number of analyses. The analyses included truncation at both the N-terminus and the C-terminus, disulfide substitution, substitution of alanine and glycine for amino acids in positions 2 through 8, substitution of branched aliphatic amino acids in positions 2, 4, 5 and 8, substitution of amino acids affecting conformation of the peptide, including substitution of α-methyl amino acids, substitution of basic amino acids in position 7, substitution of D-amino acids in positions 2 through 9, and the substitution of N-α-methyl amino acids in positions 1 through 9.

[2] = molecular target: ACA-6501; experiment: Competitive binding peptide ACA ELISA, cardiolipin/β2-GPI-coated plates; set-up: species or system human; details: for with ACA 6501 150 ug/mL: Optimization of Peptide 3G3, inf = no 50% inhibition; for IC50 Values, ACA-6501: cyclic thioether analogs
Experimental: (§1) A variation of this assay uses microtitration plates coated with human β2-glycoprotein I/cardiolipin (β2-GPI/CL) instead of tetravalent peptide and tests the ability of monomeric peptides to block the binding of aPL antibody to the epitope(s) on β2-GPI/CL. In this assay, IgG-depleted human serum at an optimized concentration is used as a source of β2-GPI. The monomeric peptides at several concentrations are incubated with an optimized concentration of aPL antibody in a manner analogous to the assay which employs tetravalent peptide as a plate substrate. Following the incubation of aPL/peptide in (β2-GPI/CL) plates, antibody binding and the peptide concentration required for 50% inhibition is determined at half-maximal absorbance as in the tetravalent assay.
(§2) Peptide sequences for all five peptides immediately follow the table. All were tested using the competitive binding peptide ACA ELISA using CL/β2-GPI plates as described herein.
(§3) (B) Immulon I® 96-well, flat-bottom, polystyrene microtitration plates (Dynatech Laboratories, Inc., Chantilly, Va.) were coated with 30 μL/well of cardiolipin (CL, 50 μg; Sigma Chemical Co., St. Louis, Mo.) in ethanol. Two control wells received 30 μL ethanol only. After overnight evaporation at 4° C., each well was blocked with 200 μL of 5% (w/v) fish gelatin in PBS for 2 hours at RT.
During this incubation, variable amounts of each of six peptides were mixed with 22 μL ACA-6501 serum diluted with 3% fish gelatin in 1:1 TBS/PBS (final dilution of 1:400) in a final volume of 220 μL using Eppendorf microcentrifuge tubes. Specifically, in tube #1 were mixed 181.3 μL of 3% fish gelatin in TBS-PBS, 16.7 μL of peptide stock solution plus 22 μL of ACA-6501 serum diluted 40 times in 3% fish gelatin/TBS-PBS. Stock solutions ranged from 450-800 μg/mL for peptides #951 (diserine non-cyclized negative control), #952 (a lot of LJP 690), and thioethers CCTE-3G3, CHTE-3G3, HCTE-3G3 and HHTE-3G3. To tube #2 the following were added: 148 μL fish gelatin/TBS-PBS, […] of peptide stock solution, plus 22 μL of 40 times diluted ACA-6501 serum. Tube #3 contained 48 μL fish gelatin/TBS-PBS, […] of peptide stock solution, plus 22 μL of 40 times diluted ACA-6501 serum. The control tube #4 received 396 μL fish gelatin/TBS-PBS and 44 μL of 40 times diluted ACA-6501 serum (no peptide). Each of the tubes incubated for approximately 1 hour at RT.
(§4) The CL/β2-GPI microtitration plate was washed 5 times with TBS and 100 μL aliquots in duplicate from Eppendorf tubes #1, 2, 3, and 4 containing the antibody-peptide (or no peptide mixtures) were added to the wells. A volume of 100 μL from tube #4 was added to the duplicate control wells containing no cardiolipin. The microtitration plate was incubated for 1 hour at RT with agitation at 40 rpm in an orbital shaker (American Scientific, Rotator V), washed 5 times with TBS and then 100 μL of 1:1000 goat anti-human IgG alkaline phosphatase conjugate (Zymed, Cat No. 62-8422) in 0.5% (w/v) BSA-TBS was added. Following incubation for 1 hour at RT, the microtitration plate was again washed 5 times with TBS and the colorimetric enzyme detection developed by adding 100 μL of PMPP solution (7.8 g phenolphthalein monophosphate plus 69.5 g of 2-amino-2-methyl-1-propanol in 100 mL water stock solution diluted 1:26 with water). After 21 minutes, the reaction was stopped by adding 50 μL of 0.2 M Na2HPO4 (Mallinckrodt) to each well. Absorbance at 550 nm was read in a microplate reader (Bio-Tek Instruments, Model EL 311). The amount of peptide that inhibited ACA-6501 binding by 50%, the IC50, was calculated from the graph at the intersection of half-maximal absorbance with amount of peptide added.

[3] = molecular target: ACA-6701; experiment: as above; set-up: species or system human; details: cyclic thioether analogs
Experimental: as §1, §2, §3, §4

Compound	with ACA 6501 150 ug/mL [2]	other results
CLGVAGKLC [C L G V A G K L C]	inf	Relative Activity [1]: ∞
CC(C)C[C@@H]1NC(=O)[C@H](CCCCN)NC(=O)CNC(=O)[C@H](CC(C)C)NC(=O)[C@H](C(C)C)NC(=O)CNC(=O)[C@H](CC(C)C)NC(=O)[C@@H](N)CCSCC[C@@H](C(=O)O)NC1=O [LJP 703] (H-[hCys]LGVLGKL[Abu(4-yl)]-OH; thioether 1-9; N-terminus and C-terminus assumed)	80 µg/mL	IC50 Values, ACA-6701 [3]: 3.6 μg/0.1 mL; IC50 Values, ACA-6501 [2]: 8.0 μg/0.1 mL
SLGVLGKLS [diserine non-cyclized negative control, reference compound]		Relative Activity [1]: ∞
CC(C)C[C@@H]1NC(=O)[C@H](CCCCN)NC(=O)CNC(=O)[C@H](CC(C)C)NC(=O)[C@H](C(C)C)NC(=O)CNC(=O)[C@H](CC(C)C)NC(=O)[C@@H](N)CSC[C@@H](C(=O)O)NC1=O [LJP 698]		IC50 Values, ACA-6701 [3]: 5.0 μg/0.1 mL; IC50 Values, ACA-6501 [2]: 11.0 μg/0.1 mL
CLGVLPGKLC		Relative Activity [1]: 1.4
CC(C)C[C@@H]1NC(=O)[C@H](CCCCN)NC(=O)CNC(=O)[C@H](CC(C)C)NC(=O)[C@H](C(C)C)NC(=O)CNC(=O)[C@H](CC(C)C)NC(=O)[C@@H](N)CSCC[C@@H](C(=O)O)NC1=O [LJP 702] (H-CLGVLGKL[Abu(4-yl)]-OH; thioether 1-9; N-terminus and C-terminus assumed)	92 µg/mL	IC50 Values, ACA-6701 [3]: 3.2 μg/0.1 mL; IC50 Values, ACA-6501 [2]: 9.2 μg/0.1 mL
CC[C@H](C)[C@@H]1NC(=O)[C@@H](N)CSSC[C@@H](C(=O)O)NC(=O)[C@H](CC(C)C)NC(=O)[C@H](CCCCN)NC(=O)CNC(=O)[C@H](CC(C)C)NC(=O)[C@H](C(C)C)NC(=O)CNC1=O [C I G V L G K L C] (H-CIGVLGKLC-OH; disulfide 1-9)	60 µg/mL	
CC(C)C[C@@H]1NC(=O)[C@H](CCCCN)NC(=O)CNC(=O)[C@H](CC(C)C)NC(=O)[C@H](C(C)C)NC(=O)CNC(=O)[C@@H]2CCCN2C(=O)[C@@H](N)CSSC[C@@H](C(=O)O)NC1=O [C P G V L G K L C] (H-CPGVLGKLC-OH; disulfide 1-9)	160 µg/mL	
CC(C)C[C@@H]1NC(=O)[C@H](CCCCN)NC(=O)[C@@H]2CCCN2C(=O)[C@H](CC(C)C)NC(=O)[C@H](C(C)C)NC(=O)CNC(=O)[C@H](CC(C)C)NC(=O)[C@@H](N)CSSC[C@@H](C(=O)O)NC1=O [C L G V L P K L C] (H-CLGVLPKLC-OH; disulfide 1-9)	350 µg/mL	
CC(C)C[C@@H]1NC(=O)[C@H](CCCCN)NC(=O)C(C)(C)NC(=O)[C@H](CC(C)C)NC(=O)[C@H](C(C)C)NC(=O)CNC(=O)[C@H](CC(C)C)NC(=O)[C@@H](N)CSSC[C@@H](C(=O)O)NC1=O [C L G V L aiB K L C] (H-CLGVL[Aib]KLC-OH; disulfide 1-9)	110 µg/mL	
CC(C)C[C@@H]1NC(=O)[C@H](CCCCN)NC(=O)CNC(=O)[C@H](CC(C)C)NC(=O)[C@H](C(C)C)NC(=O)CNC(=O)[C@@H](CC(C)C)NC(=O)[C@@H](N)CSSC[C@@H](C(=O)O)NC1=O [CdL G V L G K L C] (H-C[dL]GVLGKLC-OH; disulfide 1-9)	180 µg/mL	
CLGVGGKLC [C L G V G G K L C]	inf	
CC(C)C[C@@H]1NC(=O)[C@H](CCCCN)NC(=O)CNC(=O)[C@H](CC(C)C)NC(=O)[C@H](C(C)C)NC(=O)C(C)(C)NC(=O)[C@H](CC(C)C)NC(=O)[C@@H](N)CSSC[C@@H](C(=O)O)NC1=O [C L aiB V L G K L C] (H-CL[Aib]VLGKLC-OH; disulfide 1-9)	80 µg/mL	
CC(C)C[C@@H]1NC(=O)[C@H](C(C)C)NC(=O)CNC(=O)[C@H](CC(C)C)NC(=O)[C@@H](N)CSSC[C@@H](C(=O)O)NC(=O)[C@H](CC(C)C)NC(=O)C(C)(C)NC(=O)CNC1=O [C L G V L G aiB L C] (H-CLGVLG[Aib]LC-OH; disulfide 1-9)	460 µg/mL	
CLGVPGKLC [C L G V P G K L C]	Inf.	
CC(C)C[C@@H]1NC(=O)[C@H](C)NC(=O)CNC(=O)[C@H](CC(C)C)NC(=O)[C@@H](N)CSSC[C@@H](C(=O)O)NC(=O)[C@H](CC(C)C)NC(=O)[C@H](CCCCN)NC(=O)CNC1=O [C L G A L G K L C] (H-CLGALGKLC-OH; disulfide 1-9)	260 µg/mL	
CC(C)C[C@@H]1NC(=O)[C@H](CCCCN)NC(=O)CNC(=O)[C@H](CC(C)C)NC(=O)[C@H](C(C)C)NC(=O)[C@H](C)NC(=O)[C@H](CC(C)C)NC(=O)[C@@H](N)CSSC[C@@H](C(=O)O)NC1=O [C L A V L G K L C] (H-CLAVLGKLC-OH; disulfide 1-9)	170 µg/mL	
CC(C)C[C@@H]1NC(=O)[C@H](CCCCN)NC(=O)CNC(=O)[C@H](CC(C)C)N(C)C(=O)[C@H](C(C)C)NC(=O)CNC(=O)[C@H](CC(C)C)NC(=O)[C@@H](N)CSSC[C@@H](C(=O)O)NC1=O [C L G V nL G K L C] (H-CLGV[NMeL]GKLC-OH; disulfide 1-9)	180 µg/mL	
CC(C)C[C@@H]1NC(=O)[C@H](CCCCN)NC(=O)CNC(=O)[C@H](CC(C)C)NC(=O)[C@H](C(C)C)NC(=O)[C@H](c2ccccc2)NC(=O)[C@H](CC(C)C)NC(=O)[C@@H](N)CSSC[C@@H](C(=O)O)NC1=O [C L pG V L G K L C] (H-CL[Phg]VLGKLC-OH; disulfide 1-9)	70 µg/mL	
CC(C)C[C@@H]1NC(=O)[C@@H](NC(=O)[C@H]2CCCN2)CSSC[C@@H](C(=O)O)NC(=O)[C@H](CC(C)C)NC(=O)[C@H](CCCCN)NC(=O)CNC(=O)[C@H](CC(C)C)NC(=O)[C@H](C(C)C)NC(=O)CNC1=O [dP C L G V L G K L C] (H-[dP]CLGVLGKLC-OH; disulfide 2-10)	120 µg/mL	
CC(C)C[C@@H]1NC(=O)[C@H](C(C)C)NC(=O)CNC(=O)[C@H](CC(C)C)NC(=O)[C@@H](N)CSSC[C@@H](C(=O)O)NC(=O)[C@H](c2ccccc2)NC(=O)[C@H](CCCCN)NC(=O)CNC1=O [C L G V L G K pG C] (H-CLGVLGK[Phg]C-OH; disulfide 1-9)	80 µg/mL	
CC(C)C[C@@H]1NC(=O)[C@H](CCCNC(=N)N)NC(=O)CNC(=O)[C@H](CC(C)C)NC(=O)[C@H](C(C)C)NC(=O)CNC(=O)[C@H](CC(C)C)NC(=O)[C@@H](N)CSSC[C@@H](C(=O)O)NC1=O [C L G V L G R L C] (H-CLGVLGRLC-OH; disulfide 1-9)	160 µg/mL	
C L G V aiB G K L C	inf.	
CC(C)C[C@@H]1NC(=O)[C@H](C(C)C)NC(=O)CNC(=O)[C@H](CC(C)C)NC(=O)[C@@H](N)CSSC[C@@H](C(=O)O)NC(=O)[C@H](CC(C)C)NC(=O)[C@@H]2CCCN2C(=O)CNC1=O [C L G V L G P L C] (H-CLGVLGPLC-OH; disulfide 1-9)	160 µg/mL	
